The values that follow come from paper PMC12559008 (Nature cancer, 2025).

A short description of series [1]: pKa measurement by pH titration. In kind it is physicochemical. The conditions noted are these: pH probe, titration of SM-AZO-PTX and SM-AZE-PTX.
Series [2] in a line: MTD dose stated for CPT comparators. The conditions noted are these: mouse, in vivo, intravenous.
The next series is described as follows: in vivo. As to conditions: B6129SF1/J, mouse, iv.
The conditions of series [3]: B6129SF1/J, mouse, in vivo, iv, 24 h.
For series [4] the following is noted: mouse, in vivo.

In turn, `C1CCCNCC1` [AZE, Azepane] came in with a pKa in series [1] of roughly 6.98.
On to `C1CCCNCCC1` [AZO, Azocane], for which the pKa in series [1] was 5.75.
As for `CC[C@@]1(O)C(=O)OCc2c1cc1n(c2=O)Cc2cc3ccccc3nc2-1` [Free CPT, Camptothecin], the MTD in series [2] was determined as 5 mg/kg.
As for `Nc1ccn([C@@H]2O[C@H](CO)[C@@H](O)C2(F)F)c(=O)n1` [GEM, gemcitabine], in the series “in vivo”, the half-life is 23.4 ± 3.6 min. Moreover, the “Injected GEM dose (%), Tumor” value in series [3] turned out to be 0.21%.
For Taxol, in series [4], the “myelosuppression and neuropathy (sternums and dorsal root ganglia), in words” value is “severely damaged sternums and dorsal root ganglia tissues”.

As usually defined, the pKa is the negative logarithm of the acid dissociation constant. What is called half-life is how long it takes for the measured level to halve. High values mean slow loss, low ones fast loss.
